Assay results: ChEMBL document CHEMBL4706653, “Ultra-short lipopeptides against gram-positive bacteria while alleviating antimicrobial resistance” (Eur J Med Chem, 2021)
Converted amounts (≈) assume the structure as drawn. The source made the active and inactive calls. The rule behind the calls is not given here. Residues, ends and D or L forms follow the SMILES beside them. *: point of attachment. Stearoyl = CCCCCCCCCCCCCCCCCC(=O)*

What was measured:
[1] = Therapeutic index, ratio of MHC for mouse RBC to geometric mean of peptide MIC for Staphylococcus epidermidis ATCC 12228; format: toxicity; conditions: pooled result: one value given for 6 cell lines, strains, targets or settings, read-out: TI
[2] = system: Staphylococcus aureus; assay: Antimicrobial activity against Staphylococcus aureus ATCC 29213 after 18 hrs by broth microdilution method; format: functional
[3] = system: Staphylococcus aureus; assay: Antimicrobial activity against methicillin-resistant Staphylococcus aureus 113 after 18 hrs by broth microdilution method; format: functional
[4] = system: Staphylococcus aureus; assay: Antimicrobial activity against Staphylococcus aureus ATCC 25923 after 18 hrs by broth microdilution method; format: functional
[5] = system: Erythrocyte; assay: Hemolytic activity against mouse erythrocytes measured after 1 hr; format: ADME, cell-based
[6] = system: Staphylococcus aureus; assay: Antimicrobial activity against methicillin-resistant Staphylococcus aureus 75 after 18 hrs by broth microdilution method; format: functional
[7] = system: Bacillus subtilis; assay: Antimicrobial activity against Bacillus subtilis ATCC 23857 after 18 hrs by broth microdilution method; format: functional
[8] = system: Staphylococcus epidermidis; assay: Antimicrobial activity against Staphylococcus epidermidis ATCC 12228 after 18 hrs by broth microdilution method; format: functional
[9] = system: Mus musculus; assay: Antiinflammatory activity in Staphylococcus aureus ATCC 25923 infected neutropenia BALB/c mouse assessed as reduction in TNFalpha level in serum at 10 to 20 mg/kg, ip administered staring from 2 hrs post infection and measured 8 hrs post-infected; format: functional, organism-based; conditions: dose 10-20 mg/kg, time 6.0 hrs
[10] = system: Cell membrane; assay: Induction of cytoplasmic membrane disruption in Staphylococcus aureus ATCC 25923 measured for 15 mins by DiSC3-5 dye based fluorescence assay
[11] = system: Lipopolysaccharide (LPS); assay: Binding affinity to LPS (unknown origin) assessed as bacterial killing at 2 times MIC preincubated for 1 hr followed by Staphylococcus aureus ATCC 25923 addition and measured after 2 hrs by colony counting method; conditions: time 3.0 hrs
[12] = system: Staphylococcus aureus; assay: Antimicrobial activity against Staphylococcus aureus ATCC 25923 infected in neutropenia BALB/c mouse assessed as reduction in bacterial load in liver at 10 to 20 mg/kg, ip administered staring from 2 hrs post infection and measured 8 hrs post-infected; format: functional, organism-based; conditions: dose 10-20 mg/kg, time 6.0 hrs
[13] = system: Staphylococcus aureus; assay: Antimicrobial activity against Staphylococcus aureus ATCC 25923 infected in neutropenia BALB/c mouse assessed as reduction in bacterial load in spleen at 10 to 20 mg/kg, ip administered staring from 2 hrs post infection and measured 8 hrs post-infected; format: functional, organism-based; conditions: dose 10-20 mg/kg, time 6.0 hrs
[14] = system: Staphylococcus aureus; assay: Induction of reactive oxygen species generation in Staphylococcus aureus ATCC 25923 by […] dye based fluorescence assay; format: functional, organism-based
[15] = system: Staphylococcus aureus; assay: Antibiofilm activity against Staphylococcus aureus ATCC 25923 at 0.5 to 8 uM after 24 hrs by crystal violet staining based assay; format: functional, organism-based; conditions: dose 0.5-8 µM
[16] = system: Cell membrane; assay: Induction of membrane disruption in Staphylococcus aureus ATCC 25923 measured after 2 hrs by propidium iodide staining based flow cytometry
[17] = system: Staphylococcus aureus; assay: Antibiofilm activity against ciprofloxacin-resistant Staphylococcus aureus ATCC 25923 at 0.5 to 8 uM after 24 hrs by crystal violet staining based assay; format: functional, organism-based; conditions: dose 0.5-8 µM
[18] = system: Staphylococcus aureus; assay: Induction of nucleic acid leakage in Staphylococcus aureus ATCC 25923 at 4 times MIC; format: functional
[19] = system: Cell membrane; assay: Induction of membrane disruption in Staphylococcus aureus ATCC 25923 measured after 2 hrs by propidium iodide staining based confocal laser scanning microscopic analysis; format: subcellular
[20] = system: Staphylococcus aureus; assay: Antimicrobial activity against Staphylococcus aureus ATCC 25923 infected in neutropenia BALB/c mouse assessed as reduction in lung bacterial load at 10 to 20 mg/kg, ip administered staring from 2 hrs post infection and measured 8 hrs post-infected; format: functional, organism-based; conditions: dose 10-20 mg/kg, time 6.0 hrs
[21] = system: Staphylococcus aureus; assay: Antimicrobial activity against Staphylococcus aureus ATCC 25923 assessed as bacterial killing preincubated for 4 hrs followed by replating on MHB agar and measured after 24 hrs by time kill assay; format: functional, organism-based; conditions: time 28.0 hrs
[22] = Binding affinity to LTA (unknown origin) assessed as bacterial killing at 2 times MIC preincubated for 1 hr followed by Staphylococcus aureus ATCC 25923 addition and measured after 2 hrs by colony counting method; conditions: time 3.0 hrs
[23] = system: Staphylococcus aureus; assay: Antimicrobial activity against Staphylococcus aureus ATCC 25923 infected in neutropenia BALB/c mouse assessed as reduction in bacterial load in kidney at 10 to 20 mg/kg, ip administered staring from 2 hrs post infection and measured 8 hrs post-infected; format: functional, organism-based; conditions: dose 10-20 mg/kg, time 6.0 hrs
[24] = system: Staphylococcus aureus; assay: Antimicrobial activity against Staphylococcus aureus ATCC 25923 assessed as bacterial killing at 2 times MIC preincubated for 2 hrs followed by replating on MHB agar and measured after 24 hrs by time kill assay; format: functional, organism-based; conditions: time 26.0 hrs
[25] = system: Staphylococcus aureus; assay: Ratio of MIC for antimicrobial activity against Staphylococcus aureus ATCC 25923 in presence of 2.5% serum to MIC for antimicrobial activity against Staphylococcus aureus ATCC 25923 in absence of serum; format: functional
[26] = system: Staphylococcus aureus; assay: Antimicrobial activity against Staphylococcus aureus ATCC 25923 assessed as bacterial killing at 4 times MIC preincubated for 30 mins followed by replating on MHB agar and measured after 24 hrs by time kill assay; format: functional, organism-based; conditions: time 24.5 hrs
[27] = system: Staphylococcus aureus; assay: Antimicrobial activity against Staphylococcus aureus ATCC 25923 assessed as bacterial killing at MIC preincubated for 4 hrs followed by replating on MHB agar and measured after 24 hrs by time kill assay; format: functional, organism-based; conditions: time 28.0 hrs
[28] = system: HEK-293T; assay: Cytotoxicity against HEK293T cells assessed as reduction in cell viability at 1 uM measured after 24 hrs by MTT assay; format: cell-based; conditions: human
[29] = system: Staphylococcus epidermidis; assay: Antimicrobial activity against Staphylococcus epidermidis ATCC 12228 at 0.5 times MIC after 15 passages by broth microdilution method; format: functional, organism-based
[30] = system: Staphylococcus aureus; assay: Ratio of MIC for antimicrobial activity against Staphylococcus aureus ATCC 25923 in presence of 5% serum to MIC for antimicrobial activity against Staphylococcus aureus ATCC 25923 in absence of serum; format: functional
[31] = system: Staphylococcus aureus; assay: Antimicrobial activity against Staphylococcus aureus ATCC 25923 at 0.5 times MIC after 15 passages by broth microdilution method; format: functional, organism-based
[32] = system: Staphylococcus aureus; assay: Ratio of MIC for antimicrobial activity against Staphylococcus aureus ATCC 25923 in presence of 10% serum to MIC for antimicrobial activity against Staphylococcus aureus ATCC 25923 in absence of serum; format: functional
[33] = system: Cell membrane; assay: Induction of membrane disruption in Staphylococcus aureus ATCC 25923 assessed as PI-positive cells at 4 times MIC measured after 2 hrs by propidium iodide staining based flow cytometry relative to control
[34] = system: Cell membrane; assay: Induction of membrane disruption in Staphylococcus aureus ATCC 25923 assessed as PI-positive cells at 2 times MIC measured after 2 hrs by propidium iodide staining based flow cytometry relative to control
[35] = system: Staphylococcus aureus; assay: Antimicrobial activity against Staphylococcus aureus ATCC 25923 assessed as bacterial killing at 0.5 times MIC preincubated for 4 hrs followed by replating on MHB agar and measured after 24 hrs by time kill assay; format: functional, organism-based; conditions: time 28.0 hrs

CCCCCCCCCCCCCCCCCC(=O)N[C@@H](CCCNC(=N)N)C(=O)N[C@@H](CCCNC(=N)N)C(=O)N[C@@H](CCCNC(=N)N)C(N)=O (Stearoyl-Arg-Arg-Arg-NH2)
selectivity ratio [1]: 4
MIC [2]: 4 µM (≈ 3.01 µg/mL)
MIC [3]: 2 µM (≈ 1.5 µg/mL)
MIC [4]: 4 µM (≈ 3.01 µg/mL)
MHC10 [5]: 32 µM
MIC [6]: 4 µM (≈ 3.01 µg/mL)
MIC [7]: 8 µM (≈ 6.02 µg/mL)
MIC [8]: 8 µM (≈ 6.02 µg/mL)

CCCCCCCCCCCCCCCCCC(=O)N[C@@H](CCCNC(=N)N)C(=O)N[C@@H](CCCNC(=N)N)C(=O)N[C@@H](Cc1c[nH]c2ccccc12)C(N)=O (Stearoyl-Arg-Arg-Trp-NH2)
selectivity ratio [1]: 3.69
MIC [2]: 8 µM (≈ 6.26 µg/mL)
MIC [3]: 8 µM (≈ 6.26 µg/mL)
MIC [4]: 8 µM (≈ 6.26 µg/mL)
MHC10 [5]: 32 µM
MIC [6]: 16 µM (≈ 12.5 µg/mL)
MIC [7]: 8 µM (≈ 6.26 µg/mL)
MIC [8]: 4 µM (≈ 3.13 µg/mL)

CCCCCCCCCCCCCCCCCC(=O)N[C@@H](CCCNC(=N)N)C(=O)N[C@@H](Cc1c[nH]c2ccccc12)C(=O)N[C@@H](CCCNC(=N)N)C(N)=O (Stearoyl-Arg-Trp-Arg-NH2)
selectivity ratio [1]: 1.04
MIC [2]: 128 µM (≈ 100 µg/mL)
MIC [3]: 8 µM (≈ 6.26 µg/mL)
MIC [4]: 16 µM (≈ 12.5 µg/mL)
MHC10 [5]: 32 µM
MIC [6]: 8 µM (≈ 6.26 µg/mL)
MIC [7]: 16 µM (≈ 12.5 µg/mL)
MIC [8]: 8 µM (≈ 6.26 µg/mL)

CCCCCCCCCCCCCCCCCC(=O)N[C@@H](CCCNC(=N)N)C(=O)N[C@@H](Cc1c[nH]c2ccccc12)C(=O)N[C@@H](Cc1c[nH]c2ccccc12)C(N)=O (Stearoyl-Arg-Trp-Trp-NH2)
selectivity ratio [1]: 1.09
MIC [2]: > 128 µM
MIC [3]: > 128 µM
MIC [4]: > 128 µM
MHC10 [5]: 256 µM
MIC [6]: > 128 µM
MIC [7]: > 128 µM
MIC [8]: 128 µM (≈ 104 µg/mL)

CCCCCCCCCCCCCCCCCC(=O)N[C@@H](Cc1c[nH]c2ccccc12)C(=O)N[C@@H](CCCNC(=N)N)C(=O)N[C@@H](CCCNC(=N)N)C(N)=O (Stearoyl-Trp-Arg-Arg-NH2)
selectivity ratio [1]: 2
MIC [2]: 32 µM (≈ 25 µg/mL)
MIC [3]: 16 µM (≈ 12.5 µg/mL)
MIC [4]: 16 µM (≈ 12.5 µg/mL)
MHC10 [5]: 32 µM
MIC [6]: 8 µM (≈ 6.26 µg/mL)
MIC [7]: 16 µM (≈ 12.5 µg/mL)
MIC [8]: 8 µM (≈ 6.26 µg/mL)

O=C(O)c1cn(C2CC2)c2cc(N3CCNCC3)c(F)cc2c1=O [CIPROFLOXACIN]
Activity [9]: Active
Activity [10]: inactive
Activity [11]: inactive
MIC [2]: 1 µM (≈ 0.331 µg/mL)
Activity [12]: Active
Activity [13]: Active
Activity [14]: Active
Activity [15]: Active
Activity [16]: inactive
Activity [17]: Active
MIC [3]: < 1 µM
Activity [18]: Active
Activity [19]: inactive
Activity [20]: Active
Activity [21]: inactive
MIC [4]: 1 µM (≈ 0.331 µg/mL)
Activity [22]: inactive
Activity [23]: Active
MIC [6]: 128 µM (≈ 42.4 µg/mL)
MIC [7]: < 1 µM
MIC [8]: < 1 µM

CC[C@H](C)[C@H](NC(=O)CN)C(=O)NCC(=O)N[C@@H](C)C(=O)N[C@H](C(=O)N[C@@H](CC(C)C)C(=O)N[C@@H](CCCCN)C(=O)N[C@H](C(=O)N[C@@H](CC(C)C)C(=O)N[C@H](C(=O)N[C@H](C(=O)NCC(=O)N[C@@H](CC(C)C)C(=O)N1CCC[C@H]1C(=O)N[C@@H](C)C(=O)N[C@@H](CC(C)C)C(=O)N[C@H](C(=O)N[C@@H](CO)C(=O)N[C@@H](Cc1c[nH]c2ccccc12)C(=O)N[C@H](C(=O)N[C@@H](CCCCN)C(=O)N[C@@H](CCCNC(=N)N)C(=O)N[C@@H](CCCCN)C(=O)N[C@@H](CCCNC(=N)N)C(=O)N[C@@H](CCC(N)=O)C(=O)N[C@@H](CCC(N)=O)C(N)=O)[C@@H](C)CC)[C@@H](C)CC)[C@@H](C)O)[C@@H](C)O)C(C)C)C(C)C [MELITTIN]
Activity [10]: Active
Activity [24]: Active
Ratio [25]: 2
Activity [11]: Active
Activity [26]: Active
selectivity ratio [1]: 0.8
Activity [27]: Active
Activity [28]: Toxic
Activity [29]: Active
Activity [14]: Active
Activity [15]: Active
Activity [17]: Active
Activity [18]: inactive
Activity [19]: Active
Ratio [30]: 2
Activity [31]: Active
Ratio [32]: 2
Activity [33]: 92.5%
Activity [34]: 91.9%
Activity [35]: inactive
Activity [22]: Active
MHC10 [5]: 2 µM
